From the NIST ThermoML archive (doi:10.1016/j.jct.2015.02.010)
Where “and” joins values, the source holds several entries; their conditions need not be identical. Equal values may be shown once.

Legend:
[1] = Molar enthalpy of transition or fusion; settings: Crystal; DSC
[2] = Crystal; for vapor or sublimation pressure: Calculated from knudsen effusion weight loss; for Normal melting temperature: DTA

CC(=O)Nc1ccccc1C(=O)O [2-acetamidobenzoic acid]
Settings	Molar enthalpy of transition or fusion [kcal/mol]	Normal melting temperature [°C]
[1]	7.01	–
[2]	–	181.96

[2]
Settings	vapor or sublimation pressure
367.17 K	8.3e-05 kPa
369.28 K	0.000109 kPa and 0.000106 kPa and 0.000108 kPa
371.16 K	0.000128 kPa
373.16 K	0.00016 kPa and 0.000163 kPa
375.26 K	0.000207 kPa and 0.00021 kPa
377.16 K	0.000248 kPa and 0.000255 kPa and 0.000258 kPa
379.19 K	0.000305 kPa and 0.000303 kPa and 0.000308 kPa
381.29 K	0.000385 kPa and 0.000373 kPa and 0.000378 kPa
383.16 K	0.000438 kPa
385.15 K	0.000577 kPa and 0.000561 kPa and 0.000574 kPa
387.26 K	0.000697 kPa and 0.000711 kPa and 0.00078 kPa
389.15 K	0.000829 kPa and 0.00084 kPa

CC(=O)Oc1ccccc1C(=O)O [2-acetoxybenzoic acid]
Settings	Molar enthalpy of transition or fusion [kcal/mol]	Normal melting temperature [°C]
[1]	8.09	–
[2]	–	134.23

[2]
Settings	vapor or sublimation pressure
341.11 K	0.00012 kPa and 0.000119 kPa
343.24 K	0.000147 kPa and 0.000158 kPa
345.28 K	0.000194 kPa and 0.000203 kPa
347.1 K	0.00023 kPa and 0.000238 kPa
349.24 K	0.00029 kPa and 0.000305 kPa
351.27 K	0.000378 kPa and 0.000387 kPa
353.1 K	0.000478 kPa and 0.000471 kPa
355.28 K	0.000599 kPa and 0.000643 kPa
357.27 K	0.000744 kPa and 0.000796 kPa
359.23 K	0.00089 kPa and 0.000966 kPa
361.11 K	0.001165 kPa

CC(=O)Nc1cccc(C(=O)O)c1 [3-(acetylamino)benzoic acid]
Settings	Molar enthalpy of transition or fusion [kcal/mol]	Normal melting temperature [°C]
[1]	10.1	–
[2]	–	249.04

[2]
Settings	vapor or sublimation pressure
423.22 K	0.000156 kPa
425.28 K	0.000193 kPa and 0.000189 kPa
427.09 K	0.000223 kPa and 0.000219 kPa
429.23 K	0.000279 kPa and 0.000283 kPa
431.28 K	0.000336 kPa and 0.000341 kPa
433.24 K	0.00041 kPa and 0.000419 kPa
435.1 K	0.000495 kPa and 0.000496 kPa
437.29 K	0.000619 kPa and 0.000621 kPa
439.23 K	0.000751 kPa and 0.000744 kPa
441.1 K	0.000886 kPa and 0.000907 kPa

CC(=O)Oc1cccc(C(=O)O)c1 [3-acetoxybenzoic acid]
Settings	Molar enthalpy of transition or fusion [kcal/mol]	Normal melting temperature [°C]
[1]	6.28	–
[2]	–	131.61

[2]
Settings	vapor or sublimation pressure
344.16 K	0.000129 kPa and 0.000124 kPa and 0.000123 kPa
346.15 K	0.000158 kPa and 0.000163 kPa and 0.000157 kPa
348.2 K	0.000198 kPa and 0.000199 kPa and 0.000205 kPa
350.13 K	0.000251 kPa and 0.00025 kPa and 0.000257 kPa
353.17 K	0.000355 kPa and 0.000357 kPa and 0.00037 kPa
356.21 K	0.000497 kPa and 0.000499 kPa and 0.00051 kPa
358.16 K	0.000631 kPa and 0.000652 kPa
360.17 K	0.000813 kPa and 0.00081 kPa
362.16 K	0.000967 kPa and 0.000966 kPa and 0.001004 kPa
